Consider 1 molecule from publication PMC10141604, “Small-Molecule Inhibition of Androgen Receptor Dimerization as a Strategy against Prostate Cancer” (ACS Central Science, 2023).

The subject of series [1] is NIH-3T3. The series is described as follows: MTT cell viability assay, NIH-3T3. Format: cell-based, murine. The conditions noted are these: 72 h. The protocol:
(§1) 3-(4,5-dimethythiazol-2-yl)-2,5-diphenyl-2-H-tetrazolium bromide (MTT) colorimetric assay was employed to investigate cell viability. Cells were seeded into 96-well plates with 2-5× 10^3 cells per well (5× 10^3 cells/well for LNCaP, 22RV1, NIH-3T3, GES-1, Chang, […]
(§2) NCI-H1299, U2OS, U87) for 1 day incubation at 37 °C. Then, the cells were treated with various concentrations of compounds (22.86 nM - 50 μM) and incubated for 72 h. Then, 10 μl MTT (5 mg/ml) was added into each well and incubated for 4 h. Afterwards, 100 μl of triplex 10% SDS-0.1% HCl-phosophate-buffered saline (PBS) solutions was added into each well and incubated for overnight. The absorbance at 570 nm was measured (Eon, Bioteck, Winooski, VT). […]

Series [2] concerns the target T1, AR (Homo sapiens, UniProt P10275, T878A).
T1 construct: The cells of LNCaP-ARR2PB-eGFP were; endogenous in cells; host or cells: LNCaP-ARR2PB-eGFP
T1 sequence (P10275 1-920 T878A): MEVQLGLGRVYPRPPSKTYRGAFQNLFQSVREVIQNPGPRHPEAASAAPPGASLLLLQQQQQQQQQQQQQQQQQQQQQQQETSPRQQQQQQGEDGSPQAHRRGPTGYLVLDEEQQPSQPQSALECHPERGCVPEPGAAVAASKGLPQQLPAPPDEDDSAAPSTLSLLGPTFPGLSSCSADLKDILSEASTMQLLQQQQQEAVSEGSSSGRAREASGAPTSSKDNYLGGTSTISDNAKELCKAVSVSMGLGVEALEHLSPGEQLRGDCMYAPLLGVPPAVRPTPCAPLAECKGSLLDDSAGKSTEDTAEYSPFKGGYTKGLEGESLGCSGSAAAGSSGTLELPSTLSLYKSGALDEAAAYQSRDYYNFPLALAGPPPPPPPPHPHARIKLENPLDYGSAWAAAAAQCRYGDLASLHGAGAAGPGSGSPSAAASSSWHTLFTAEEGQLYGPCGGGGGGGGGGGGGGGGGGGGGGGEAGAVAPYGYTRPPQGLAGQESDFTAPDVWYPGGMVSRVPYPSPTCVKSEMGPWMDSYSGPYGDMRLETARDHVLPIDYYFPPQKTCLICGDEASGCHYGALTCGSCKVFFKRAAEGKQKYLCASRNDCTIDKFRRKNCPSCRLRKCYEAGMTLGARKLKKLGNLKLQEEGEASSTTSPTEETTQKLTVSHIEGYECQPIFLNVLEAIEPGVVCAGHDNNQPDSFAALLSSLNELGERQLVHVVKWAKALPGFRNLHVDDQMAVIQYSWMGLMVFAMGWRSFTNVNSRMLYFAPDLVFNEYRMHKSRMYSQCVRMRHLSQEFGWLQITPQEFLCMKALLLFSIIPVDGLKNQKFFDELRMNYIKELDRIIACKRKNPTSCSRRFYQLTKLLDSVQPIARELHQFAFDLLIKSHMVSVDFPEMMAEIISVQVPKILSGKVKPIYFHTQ
The series is described as follows: AR transcriptional activity assay (LNCaP-ARR2PB-eGFP cells). The series is classed as cell-based. The settings on record: 5 nM DHT. The method, then:
University, Hangzhou, China), respectively. […]
AR Transcriptional Activity Assay
The AR transcriptional activities were determined using the constructed LNCaP-ARR2PB-eGFP cell as previously reported.11, 12 The cells of LNCaP-ARR2PB-eGFP were […]
by seeding into a 96 -well plate (3.5× 10^4 cells/well) for 1 day incubation at 37 °C. Then, the cells were treated with 5 nM DHT and various concentrations of compounds (10 μM […]
the fluorescence intensities were determined using a Synergy H1 microplate reader

Series [3] concerns the target T2, AR LBP (Rattus norvegicus, UniProt P15207).
T2 construct: purchased Invitrogen Life Technologies A15880
The series is described as follows: Competitive ligand-binding assay (PolarScreen AR competitor assay). The protocol:
Competitive Ligand Binding Assay
The binding affinities of M17 and M17-B15 to the LBP of AR LBD were determined
using PolarScreen™ Androgen Receptor Competitor Assay Kit (#A15880, Invitrogen Life
Technologies) according to the user manual. […]

Series [4] deals with secreted PSA from LNCaP cells. In words: Secreted prostate-specific antigen (PSA) assay. Format: cell-based. The method, then: Secreted Prostate-Specific Antigen (PSA) Assay
After the AR transcriptional activity assay was completed, 300 μl of the media
supernatant including the secreted PSA was measured using […]® 2000 XPi
Immunoassay System (Siemens Ltd., Erlangen, Germany). […]

The test system of series [5] is LNCaP. The series is described as follows: MTT cell viability assay, LNCaP. The series is classed as cell-based. The settings on record: 72 h. The method, then:
as §1, §2
On the technique in general: Formazan colour is commonly taken as a measure of viable cells.

T2 sequence (P15207 651-882 limits assumed): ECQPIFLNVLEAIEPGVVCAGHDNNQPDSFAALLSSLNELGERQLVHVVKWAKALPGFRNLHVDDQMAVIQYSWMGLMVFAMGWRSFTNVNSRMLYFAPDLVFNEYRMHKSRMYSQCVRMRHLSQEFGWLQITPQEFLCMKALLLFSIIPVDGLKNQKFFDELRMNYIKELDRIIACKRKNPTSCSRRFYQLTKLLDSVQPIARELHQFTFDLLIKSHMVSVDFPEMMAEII

For `CC(=O)Cc1nsc(NC(=O)c2cc(-c3ccc(Cl)c(Cl)c3)oc2C)n1` [Compound M17], the “cytotoxicity against NIH-3T3” value in series [1] was “negligible cytotoxicity”. In addition, the IC50 in series [2] (LNCaP-ARR2PB-eGFP cells, 3 days) is 0.95 ± 0.39 µM. Also, the inhibition at 10 µM in series [2] (at 10 μM) was 92.7%. Moreover, the “binding to the conventional LBP” value in series [3] is on record as “excluded”. The “inhibition of the secretion of PSA” value in series [4] is reported as “dose-dependently inhibits”. For the same molecule, the “inhibition of LNCaP viability” value in series [5] is “dose-dependent manner in the inhibition”.

Broadly, the IC50 is the concentration that gives 50% inhibition. The term inhibition denotes the share of the control response that was lost under treatment.
